Results reported in doi:10.1101/2023.11.21.567704v1 (biorxiv, 2023).

How the values were obtained:
[1] = target: T1, MtbFolB (Mycobacterium tuberculosis, UniProt P9WNC5); assay: end-point fluorescence assay; format: biochemical
T1 sequence (P9WNC5 1-133): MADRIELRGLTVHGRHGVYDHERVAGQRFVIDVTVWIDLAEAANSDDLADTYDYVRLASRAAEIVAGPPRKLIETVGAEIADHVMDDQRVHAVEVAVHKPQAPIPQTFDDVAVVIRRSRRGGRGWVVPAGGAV

[2] = target: T1, MtbFolB; assay: biochemical; conditions: read-out: % inhibition
[3] = target: T1, MtbFolB; assay: biochemical
[4] = target: T1, MtbFolB; assay: primary screen, end-point fluorescence assay, 384-well, […] h; format: biochemical; conditions: 5 µM DHNP, 14 nM enzyme, pH 8.0, 24 °C, 1% DMSO

`O=C(CCC(=O)c1ccc(-c2ccccc2)cc1)Nc1nncs1` [compound 2, 2] gave an IC50 [1] of 8 µM.

`O=C(CCC(=O)c1ccc(-c2ccccc2)cc1)Nc1nncs1` [compound 2] gave an inhibition at 20 µM [2] of 53.2%.

In the case of `Cc1cc(=O)n(-c2ccccc2)n1C(=O)Cc1cccs1` [compound 3, 3], the IC50 [3] is reported as 250 ± 30 µM, the IC50 [1] is reported as 30.1 µM and the inhibition at 20 µM [2] is reported as 52.5%.

Compound `Cc1ccc(-n2c(=O)cc(C)n2C(=O)Cc2cccs2)cc1C` [compound 9, 9] has an IC50 [3] of 434 ± 64 µM and an inhibition at 20 µM [2] of 40.8%.

`O=C(Nc1nc2ccccc2n1Cc1ccc(F)cc1)C1CCC(F)(F)CC1` [compound 14, 14] showed an IC50 [1] of 17.2 µM.

For `O=C(Nc1nc2ccccc2n1Cc1ccc(F)cc1)C1CCC(F)(F)CC1` [compound 14], the inhibition at 20 µM [2] was 36.6%.

In the case of `COc1ccc(CC(=O)n2c(C)cc(=O)n2-c2ccccc2)cc1` [compound 16, 16], the inhibition at 20 µM [2] is reported as 35.1%.

For `O=C1NCN(c2ccccc2)C12CCN(CC(O)COc1ccccc1C1CCCC1)CC2` (stereo not drawn) [compound 17, 17], the “% inhibition at 20 μM” value [4] was 32.9%.

In the case of `Cc1cc(=O)n(-c2ccccc2)n1C(=O)C(C)Oc1ccccc1` (stereo not drawn) [compound 20, 20], the IC50 [3] is reported as 362 ± 82 µM, the IC50 [1] is reported as 23.1 µM and the inhibition at 20 µM [2] is reported as 29.9%.

For `Cc1cc(=O)n(-c2ccccc2)n1C(=O)c1ccc(Cl)cc1` [compound 21, 21], the IC50 [1] was 34.4 µM and the inhibition at 20 µM [2] was 29.8%.

`Cc1ccc(-n2c(=O)cc(C)n2C(=O)C(C)Oc2ccccc2)cc1C` (stereo not drawn) [compound 22, 22] showed an IC50 [3] of 172 ± 14 µM, an IC50 [1] of 13.5 µM and an inhibition at 20 µM [2] of 29.2%.

In the case of `CN(C)c1ccc(NS(=O)(=O)c2ccc3ccn(C)c3c2)cc1` [compound 24, 24], the IC50 [1] is reported as > 100 µM.

Compound `CN(C)c1ccc(NS(=O)(=O)c2cnn(C)c2)cc1` [compound 25, 25] has an IC50 [1] of 6.8 µM.

`Cc1noc(C)c1S(=O)(=O)Nc1ccc(N(C)C)cc1` [compound 27, 27] was tested, and the IC50 [1] was 9.2 µM.

With `CN(C)c1ccc(NS(=O)(=O)c2ccc(-c3ccc(C(F)(F)F)cc3)cc2)cc1` [compound 29, 29] the IC50 [1] was > 100 µM.

For `O=S(=O)(Nc1ccc(N2CCCCC2)cc1)c1ccc(Br)s1` [compound 32, 32], the IC50 [1] was 11.3 µM.

`O=S(=O)(Nc1ccc(-n2ccnc2)cc1)c1ccc(Br)s1` [compound 33, 33] was tested, and the IC50 [1] was > 100 µM.

For `CC(=O)Nc1ccc(NS(=O)(=O)c2ccc(Br)s2)cc1` [compound 34, 34], the IC50 [1] was > 100 µM.

With `CCc1cc(N2CCC[C@@H](O)C2)ccc1NS(=O)(=O)c1ccc(Br)s1` [compound 35, 35] the IC50 [1] was 29.1 µM.

With `CC(C)c1ccc(C(C)NS(=O)(=O)c2ccc(Br)s2)cc1` (stereo not drawn) [compound 37, 37] the IC50 [1] was > 100 µM.

In the case of `O=S(=O)(NCc1ccc(N2CCC(c3ccc(OC(F)(F)F)cc3)CC2)cc1)c1ccc(Br)s1` [compound 38, 38], the IC50 [1] is reported as > 100 µM.

`O=S(=O)(Nc1ccc(N2CCN(S(=O)(=O)c3ccc(Br)s3)CC2)cc1)c1ccc(Br)s1` [compound 39, 39] was tested, and the IC50 [1] was 10.6 µM.
